{"source": "ChEMBL document CHEMBL6120963", "about": "“Discovery of Novel PROTAC SIRT6 Degraders with Potent Efficacy against Hepatocellular Carcinoma” (J Med Chem, 2024)", "key": {"[1]": {"experiment": "Toxicity in BALB/c nude mouse xenografted with human SK-HEP1 cells assessed as histopathological abnormalities in lungs at 25 mg/kg treated for 28 to 30 days by H and E staining based analysis", "type": "organism-based", "settings": "in vivo, time 28-30 day"}, "[2]": {"experiment": "Toxicity in BALB/c nude mouse xenografted with human SK-HEP1 cells assessed as pathological damage in heart at 25 mg/kg treated for 28 to 30 days by H and E staining based analysis", "type": "organism-based", "settings": "in vivo, time 28-30 day"}, "[3]": {"experiment": "Toxicity in BALB/c nude mouse xenografted with human SK-HEP1 cells assessed as histopathological abnormalities in heart at 25 mg/kg treated for 28 to 30 days by H and E staining based analysis", "type": "organism-based", "settings": "in vivo, time 28-30 day"}, "SK-HEP1": {"tested_on": "SK-HEP1", "experiment": "Antitumor activity against human SK-HEP1 cells xenografted in BALB/c nude mouse at 25 mg/kg treated for 28 to 30 days relative to control", "type": "functional", "settings": "time 28-30 day"}, "[4]": {"experiment": "Toxicity in BALB/c nude mouse xenografted with human SK-HEP1 cells assessed as pathological damage in spleen at 25 mg/kg treated for 28 to 30 days by H and E staining based analysis", "type": "organism-based", "settings": "in vivo, time 28-30 day"}, "[5]": {"experiment": "Toxicity in BALB/c nude mouse xenografted with human SK-HEP1 cells assessed as histopathological abnormalities in spleen at 25 mg/kg treated for 28 to 30 days by H and E staining based analysis", "type": "organism-based", "settings": "in vivo, time 28-30 day"}, "[6]": {"experiment": "Toxicity in BALB/c nude mouse xenografted with human SK-HEP1 cells assessed as pathological damage in lungs at 25 mg/kg treated for 28 to 30 days by H and E staining based analysis", "type": "organism-based", "settings": "in vivo, time 28-30 day"}, "[7]": {"experiment": "Toxicity in BALB/c nude mouse xenografted with human SK-HEP1 cells assessed as body weight loss at 25 mg/kg treated for 28 to 30 days", "type": "organism-based", "settings": "in vivo, time 28-30 day"}, "[8]": {"experiment": "Toxicity in BALB/c nude mouse xenografted with human SK-HEP1 cells assessed as pathological damage in kidney at 25 mg/kg treated for 28 to 30 days by H and E staining based analysis", "type": "organism-based", "settings": "in vivo, time 28-30 day"}, "[9]": {"experiment": "Toxicity in BALB/c nude mouse xenografted with human SK-HEP1 cells assessed as pathological damage in liver at 25 mg/kg treated for 28 to 30 days by H and E staining based analysis", "type": "organism-based", "settings": "in vivo, time 28-30 day"}}, "data": [{"smiles": "CNC(=O)c1cc(Oc2ccc(NC(=O)Nc3ccc(Cl)c(C(F)(F)F)c3)cc2)ccn1", "note": "[SORAFENIB]", "values": [{"measurement": "Activity", "setting": "[1]", "value": "Non-toxic"}, {"measurement": "Activity", "setting": "[2]", "value": "Non-toxic"}, {"measurement": "Activity", "setting": "[3]", "value": "Non-toxic"}, {"measurement": "T/C", "setting": "SK-HEP1", "value": 35.4, "unit": "%"}, {"measurement": "Activity", "setting": "[4]", "value": "Non-toxic"}, {"measurement": "Activity", "setting": "[5]", "value": "Non-toxic"}, {"measurement": "Activity", "setting": "[6]", "value": "Non-toxic"}, {"measurement": "Activity", "setting": "[7]", "value": "Toxic"}, {"measurement": "Activity", "setting": "[8]", "value": "Non-toxic"}, {"measurement": "Activity", "setting": "[9]", "value": "Non-toxic"}]}]}
